In US20120309821A1, “Use of epigallocatechin-3-gallate for immune regulation” (NATIONAL DEFENSE MEDICAL CENTER, priority 2011, published 2012):

What was measured:
caspase-1 = test: Western blot of caspase-1 p20 in kidney; format: in vivo, mouse; conditions: 120 mg/kg by gavage daily, week 34
Description: (§1) Female NZB/W F1 mice were purchased from the Animal Center of the National Taiwan University (Taipei, Taiwan, ROC) and, at 12 weeks of age, were divided into two groups, one of which was given normal saline and served as the disease control, while the other was given 120 mg/kg body weight of EGCG (Ryss Lab, Inc., CA, USA) (this dose is a slight modification of those used in previous in vivo studies) by gavage daily till sacrificed at 34-weeks-old. 8-Week-old NZB/W F1 female mice (prior to onset of autoantibody production) were used as normal controls. Urine samples were collected in metabolic cages every 2 weeks and urine protein levels were measured, and serum samples were used to measure serum levels of blood urea nitrogen (BUN) and creatinine (Cr) as described previously (Ka, S. M. et al. Decoy receptor 3 ameliorates an autoimmune crescentic glomerulonephritis model in mice. J Am Soc Nephrol 18:2473-2485; 2007). All animal experiments were performed upon the ethical approval of the Institutional Animal Care and Use Committee of the National Defense Medical Center, Taiwan and according to the ethical rules in the NIH Guide for the Care and Use of Laboratory Animals. […] Antibodies to histone H3 (Cell Signaling) or β-actin (Santa Cruz) were used as internal controls for the nuclear and cytosolic target proteins, respectively.

[1] = test system: NAD(P)H oxidase subunit p47phox; test: Western blot of cytosolic p47phox in kidney; format: in vivo, mouse; conditions: 120 mg/kg by gavage daily, week 34, increase seen in disease control
Description: as §1

Epigallocatechin-3-gallate [EGCG]
caspase-1 activation (appearance of the p20 subunit) in kidney (caspase-1): significantly inhibited
levels of NAD(P)H oxidase subunit p47phox [1]: abolished
